The numbers were not newly measured in the CATMoS acute toxicity set (Mansouri et al. 2021), which cites them from elsewhere.

“And” between values parts separate entries of the source, which are not always exact repeats. Equal entries are not always repeated.

The nature of this series: rat acute oral toxicity. The settings on record: in vivo.
As for `CCC(C)NCC(O)c1ccc(N)cc1` (centres undefined), the LD50 was 650 mg/kg. For the molecule `O=C(O)C=CC(=O)O`, the LD50 was 8000 mg/kg and 3380 mg/kg. As for `c1cc(OCC2CO2)cc(OCC2CO2)c1` (centres undefined), the LD50 is 2570 mg/kg.

`O=S(=O)(Cl)c1ccccc1`: the LD50 is 1960 mg/kg. As for `CCN(CC)c1nc(N(C=NC2CC(C)(C)NC(C)(C)C2)C2CC(C)(C)NC(C)(C)C2)nc(N(C=NC2CC(C)(C)NC(C)(C)C2)C2CC(C)(C)NC(C)(C)C2)n1`, the median lethal dose (LD50) was 826 mg/kg. Regarding `CCCCOC(=O)COC(=O)c1ccccc1C(=O)OCCCC`, the LD50 is 7000 mg/kg. Take `N[C@@H]1C[C@H]1c1ccc(F)c(F)c1`: the LD50 is 50 mg/kg.

Regarding `CCP(=S)(CC)Oc1cc(Cl)c(Cl)cc1Cl`, the LD50 was 100 mg/kg.

Turning to `CC(=O)CCCO`, the LD50 is 6400 mg/kg.

Turning to `C1=CC=CCC=C1`, the LD50 was 57 mg/kg. Consider `CC(COc1ccc(Cl)cc1Cl)C(=O)O` (centres undefined), for which the LD50 is 800 mg/kg. Regarding `C[n+]1cc2c3c(ccc2c2ccc4cc5c(cc4c21)OCO5)OCO3`, the LD50 is 1660 mg/kg.

On to `CCC(=O)c1ccc2c(c1)N(CCCN(C)C)c1ccccc1S2`, for which the LD50 was 500 mg/kg. Regarding `O=C(C(F)(F)Cl)C(F)(F)Cl`, the LD50 was 61 mg/kg.

On to `CCOP(=S)(OCC)SCCl`, for which the LD50 was 7 mg/kg.

In the case of `C=C(C)C1CC=C(CO)CC1` (centres undefined), the LD50 was 2100 mg/kg. Take `Cc1ccc(=O)n(CSP(=S)(OC(C)C)OC(C)C)n1`: the LD50 is 155 mg/kg. As to `CCOc1ccc(Cl)cc1C(CN1CCCCC1)C(C)CC` (centres undefined), the LD50 was 445 mg/kg. Turning to `CCOC(=O)c1ccc(OC(=O)CCCCCNC(=N)N)cc1`, the LD50 was 6480 mg/kg.

As for `Cc1c(N(C)CS(=O)(=O)O)c(=O)n(-c2ccccc2)n1C`, the median lethal dose (LD50) is 3000 mg/kg. Consider `CCOC(=O)N(C)N=O`, for which the LD50 is 180 mg/kg. Consider `N=C(N)NCCCCCCCCNCCCCCCCCNC(=N)N`, for which the LD50 was 300 mg/kg. Take `C[C@@H]1CCCCN1N=O`: the LD50 was 600 mg/kg. As to `COc1ccc2c(c1)[C@@]13CCCC[C@H]1[C@@H](C2)N(C)CC3`, the LD50 was 242 mg/kg.

With `CN(C)CC[C@@H](c1ccc(Br)cc1)c1ccccn1`, the LD50 is 191 mg/kg.

Take `C=C[C@]1(C)C[C@@H](OC(=O)CSCCN(CC)CC)[C@]2(C)[C@H](C)CC[C@]3(CCC(=O)[C@H]32)[C@@H](C)[C@@H]1O`: the LD50 is 2230 mg/kg. For `C=C1C(=CC=C2CCCC3(C)C2CCC3C(C)CCCC(O)(C(F)(F)F)C(F)(F)F)CC(O)CC1O` (centres undefined), the LD50 was 0.0417 mg/kg.

With `COC(=O)C(C)N(C(=O)c1ccco1)c1c(C)cccc1C` (centres undefined), the LD50 was 940 mg/kg. Regarding `C=CC(=O)NCC(OC)OC`, the LD50 was 1200 mg/kg. For `CC(=O)C=Cc1ccco1`, the LD50 was 325 mg/kg.

In the case of `CC(O)COC(=O)CBr` (centres undefined), the LD50 was 664 mg/kg. As for `C=CC1(C)OC(=O)N(c2cc(Cl)cc(Cl)c2)C1=O` (centres undefined), the 50% lethal dose (LD50) is 10000 mg/kg.

In the case of `CCCCC(CC)COC(=O)COc1cc(Cl)c(Cl)cc1Cl` (centres undefined), the LD50 is 500 mg/kg. Regarding `CCOP(=S)(OCC)OP(=S)(OCC)OCC`, the LD50 is 5 mg/kg.

With `CSC(C)=NOC(=O)N(C)SN(C)C(=O)Oc1ccc(OC(=O)N(C)SN(C)C(=O)ON=C(C)SC)cc1`, the LD50 is 453 mg/kg.

As for `Nc1ccc2c(c1)C(=O)NC(CCCl)O2` (centres undefined), the LD50 was 1960 mg/kg.

`Nc1ccncc1`: the LD50 was 32 mg/kg. For the molecule `CCN(CC)CCOC(=O)c1ccc(NCc2c(CO)cnc(C)c2O)cc1`, the LD50 is 5900 mg/kg. For `CCCCOc1ccc(CC(=O)NO)cc1`, the LD50 was 3370 mg/kg. As for `CN(C)CCC=C1c2ccccc2C(C)(C)c2ccccc21`, the LD50 is 170 mg/kg.

For `COc1cccc(C(=O)CCN[C@@H](C)[C@H](O)c2ccccc2)c1`, the LD50 was 500 mg/kg. `Cc1cc(=O)n(CSP(=S)(OC(C)C)OC(C)C)nc1Cl`: the LD50 was 110 mg/kg. As for `Cn1c(=O)c2c(ncn2CC(O)CN2CCN(CCCSc3ccccc3)CC2)n(C)c1=O` (centres undefined), the LD50 was 2100 mg/kg. Turning to `COc1cccc([C@@]2(O)CCCC[C@H]2CN(C)C)c1`, the LD50 was 228 mg/kg. Regarding `CCCCCCCCCCCC[N+](C)(C)CC(=O)[O-]`, the LD50 is 71 mg/kg. Take `CCCCN(CC)N=O`: the median lethal dose (LD50) is 380 mg/kg. In the case of `Cn1cc(OCC(O)CNC(C)(C)C)c2ccccc2c1=O` (centres undefined), the LD50 is 145 mg/kg. As to `CCCOCN(C(=O)CCl)c1c(C)cccc1OCC`, the LD50 is 2100 mg/kg. Consider `COc1ccc(N)cc1Cl`, for which the LD50 is 550 mg/kg. Turning to `Cc1ncc(CSSCc2cnc(C)c(O)c2CO)c(CO)c1O`, the LD50 was 6000 mg/kg. `c1ccc(CC2CCNCC2)cc1`: the LD50 was 540 mg/kg. For the molecule `COc1c(O)c(Cl)c(Cl)c(Cl)c1Cl`, the LD50 was 1690 mg/kg. As for `CCN(COC)N=O`, the LD50 was 540 mg/kg. Regarding `O=C(CS)OCCOC(=O)CS`, the LD50 was 330 mg/kg. `CCCCCCCCCCCCCCCCCC(=O)OC[C@@H](O)[C@H]1OC[C@H](O)[C@H]1O`: the LD50 was 31000 mg/kg. As for `O=C(CCCN1CCC(O)CC1)c1ccc(F)cc1`, the LD50 is 2400 mg/kg. Turning to `CCCCOP(=O)(OCCCC)Oc1ccc2c(C)c(Cl)c(=O)oc2c1`, the LD50 is 63 mg/kg. With `CCN(CC)CCOCCOC(=O)C(CC)(CC)c1ccccc1`, the LD50 is 183 mg/kg. Turning to `CC1=C(C(=O)OC(C)C)C(c2cccc([N+](=O)[O-])c2)C(C(=O)OC2CN(C(c3ccccc3)c3ccccc3)C2)=C(N)N1` (centres undefined), the LD50 is 1270 mg/kg. As for `CNC(=O)Nc1c(OCCN2CCCC2)c(OC)c2occc2c1OC`, the LD50 was 1050 mg/kg. On to `O=C=NCc1ccc(CN=C=O)cc1`, for which the LD50 was 4500 mg/kg. As for `CCCCCCCCc1ccc(C(=O)CCN2CCCCC2)cc1`, the LD50 is 417 mg/kg. In the case of `CCOC(C1=NCC(C)(C)N1)c1ccccc1` (centres undefined), the LD50 is 510 mg/kg. With `COc1cc(C2NC(=O)CCS2)cc(OC)c1OC` (centres undefined), the LD50 was 5400 mg/kg. On to `CCCCCCS`, for which the LD50 was 1250 mg/kg.

Take `CC(=O)OCCCc1ccccc1`: the LD50 is 4700 mg/kg.

As to `COc1nccnc1NS(=O)(=O)c1ccc(N)cc1`, the LD50 is 2740 mg/kg. Regarding `CCCOP(=O)(OC=C(Cl)Cl)OCCCl` (centres undefined), the LD50 is 25 mg/kg. Regarding `Clc1ccc(N=Nc2ccc(NCCCN3CCCCC3)c3c2CCCC3)cc1`, the LD50 is 1120 mg/kg. For the molecule `CC(C)(C)c1ccc(OCC(O)COc2ccc(C(=O)O)cc2)cc1` (centres undefined), the LD50 is 2400 mg/kg.

On to `CNC(=O)Oc1ccc(O)c2ccccc12`, for which the LD50 was 1190 mg/kg.

As for `CN(C)CN(C)C`, the LD50 is 1770 mg/kg. For `CCC1NC(=O)c2cc(N)ccc2O1` (centres undefined), the LD50 is 1890 mg/kg.

`CCCCCCCCCCO`: the LD50 was 4720 mg/kg. Take `CCCCCCCCOC(CBr)c1ccc(C2CCCC2)cc1` (centres undefined): the LD50 was 250 mg/kg. In the case of `Cc1nc(C)c(C(=O)Nc2ccccc2)s1`, the LD50 is 3930 mg/kg. With `O=c1ncc2[nH]cnc2[nH]1`, the LD50 was 1040 mg/kg.

`Cc1cnc(C)c(C)n1`: the LD50 is 806 mg/kg. `c1cc2c(c(NC3=NCCN3)c1)CCCC2`: the LD50 is 190 mg/kg. On to `CC1(C)C(=O)[C@@]2(C)CC[C@@H]1C2`, for which the LD50 is 6160 mg/kg. Take `COC(=O)C1CCc2cc(C3CCCCC3)ccc21` (centres undefined): the LD50 is 410 mg/kg and 254 mg/kg. With `O=C(O)C1=CC(=C(c2ccc(O)c(C(=O)O)c2)c2ccc(O)c(C(=O)O)c2)C=CC1=O`, the LD50 was 9000 mg/kg. Consider `CCCc1ccc(C=O)cc1`, for which the LD50 was 1600 mg/kg. As to `CNC(=O)ON=CC1(C)SC(C)C(C)S1` (centres undefined), the LD50 is 2.5 mg/kg. In the case of `Fc1c(Cl)c(Cl)c2nc(C(F)(F)F)[nH]c2c1Cl`, the LD50 was 2.39 mg/kg. Consider `CC(C)COC(=O)c1ccccc1`, for which the LD50 was 5600 mg/kg. For the molecule `CCCCCCCCCCCCNC(N)=S`, the LD50 was 1000 mg/kg. For the molecule `CCCC(C(=O)c1ccc(C)cc1)N1CCCC1` (centres undefined), the LD50 was 620 mg/kg. Regarding `Cc1nn(-c2ccccc2)c(=O)c2noc(C)c12`, the LD50 was 1000 mg/kg.

Turning to `CC(Cl)COP(=O)(OCC(C)Cl)OCC(C)Cl` (centres undefined), the LD50 is 1020 mg/kg. Consider `CC=C(CC)C(=O)NC(N)=O`, for which the LD50 was 2500 mg/kg. With `CC[C@H]1C[C@H]2[C@@H]3CCC4=CC(=O)CC[C@@H]4[C@H]3CC[C@]2(C)[C@H]1O`, the LD50 was 12100 mg/kg. In the case of `CO[C@H]1CC[C@H](O[C@@H]2C[C@]3(C[C@H](O)[C@@H](C)[C@@H]([C@@H](C)C=C(C)C(=O)[C@H](C)C[C@H](C)C(=O)O)O3)O[C@]2(C)[C@H]2CC[C@@H](C)C3(O[C@@H]([C@@H]4O[C@](O)(CO)[C@@H](C)C[C@H]4C)C[C@@H]3C)O2)O[C@@H]1C` (some centres undefined), the LD50 was 7.5 mg/kg. In the case of `Nc1cc(S(=O)(=O)O)cc2cc(S(=O)(=O)O)c(/N=N\c3ccc(-c4ccc(/N=N/c5c(S(=O)(=O)O)cc6cc(S(=O)(=O)O)cc(N)c6c5O)cc4)cc3)c(O)c12`, the LD50 was 8760 mg/kg.

Regarding `CC(C)(COC(N)=O)COC(N)=O`, the LD50 was 2510 mg/kg. `CCOC(C(=O)N(C)CCN(C)C)(c1ccccc1)c1ccccc1`: the median lethal dose (LD50) was 565 mg/kg. Take `C[C@H](Oc1ccc(Oc2nc3ccc(Cl)cc3o2)cc1)C(=O)O`: the LD50 was 2090 mg/kg. In the case of `CNC(=O)Nc1nc2ccccc2s1`, the LD50 was 1280 mg/kg. `Cc1ncc(C[n+]2csc(CCO)c2C)c(N)n1`: the LD50 was 3710 mg/kg. For the molecule `c1ccc2c(c1)ncn2P(n1cnc2ccccc21)n1cnc2ccccc21`, the LD50 is 2900 mg/kg.

Regarding `Clc1ccc(CO/N=C(\Cn2ccnc2)c2ccc(Cl)cc2Cl)c(Cl)c1`, the LD50 was 2460 mg/kg. As to `C=CCNc1nc(NCC=C)nc(N(CCCCCCN(c2nc(NCC=C)nc(NCC=C)n2)C2CC(C)(C)NC(C)(C)C2)C2CC(C)(C)NC(C)(C)C2)n1`, the LD50 was 4010 mg/kg. Take `CSc1ncnc2c1ncn2C1OC(CO)C(O)C1O` (centres undefined): the LD50 was 214 mg/kg. For `CCCCCCN`, the LD50 is 670 mg/kg. As for `CN(CCO)c1nc(Nc2ccccc2)nc(Nc2ccc(/C=C/c3ccc(Nc4nc(Nc5ccccc5)nc(N(C)CCO)n4)cc3S(=O)(=O)O)c(S(=O)(=O)O)c2)n1`, the LD50 was 6890 mg/kg. Consider `NC1(C(=O)O)CCCC1`, for which the LD50 is 290 mg/kg and 260 mg/kg. As to `CN(C)C(=O)Oc1ccc[n+](C)c1`, the LD50 was 37.5 mg/kg.

Take `CCCN(CCC)C(=O)C(Cc1ccc(OCCN(CC)CC)cc1)NC(=O)c1ccccc1` (centres undefined): the LD50 is 800 mg/kg and 1070 mg/kg. `COP(=O)(NC=O)SC` (centres undefined): the LD50 was 190 mg/kg. Regarding `CN(C)S(=O)(=O)c1c(Cl)c(Cl)c(Cl)c2[nH]c(C(F)(F)F)nc12`, the LD50 was 4.77 mg/kg.

As to `C=CCOc1ccc(C2=C(c3ccccc3)C(C)(C)Oc3cc(OC)ccc32)cc1`, the LD50 was 500 mg/kg. For `CCOC(=O)CCCCCCCCC(C)c1ccc(I)cc1` (centres undefined), the LD50 is 2100 mg/kg.

As for `COP(=S)(OC)SCSc1ccccc1Cl`, the LD50 is 13 mg/kg. Take `O=C(O)C(F)(F)C(F)(F)C(F)(F)F`: the LD50 was 2140 mg/kg.

What is called LD50 is the dose at which mortality reaches 50%.
